These results are taken from PubChem BioAssay (NCI).

Assay in all cases: NCI tumour cell line growth inhibition, 48 h
Assay [1] relates to ACHN renal.
For assay [2], the system named is COLO 205 colon.
Assay [3] concerns NCI-H226 lung.
Assay [4] relates to KM12 colon.
The test system of assay [5] is SF-539 CNS.
Assay [6] relates to RPMI-8226 leukemia.
Assay [7] concerns MDA-MB-435.
In assay [8] the test system is MALME-3M melanoma.
For assay [9], the system named is HT29 colon.
Assay [10] relates to SK-OV-3 ovarian.

Values joined by “and” are separate entries in the source; they are usually repeats but may differ in a detail not shown here. Identical values can stand only once.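 Values below derive from 48-hour exposures of cells grown in 96-well plates, with endpoints linearly interpolated between the two concentrations bracketing the appropriate inhibition level. The concentration for 50% growth inhibition is given as GI50. TGI marks complete inhibition of growth.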

On to `COc1cc2c(cc1Nc1nc(N3CCc4ccccc43)c3cc[nH]c3n1)N(C(=O)CN(C)C)CC2`, for which the GI50 was 4.4 µM in [1]; 5.4 µM in [2]; 11.3 µM in assay [3]; 1.49 µM in [4]; 4.88 µM in [5]; 1.55 µM in assay [6]. Further, the GI50 in assay [7] is 2.64 µM; in assay [8], 5.03 µM; in [9], 0.364 µM; in [10] it was 20.5 µM. Moreover, the TGI is 8.82 µM in assay [1]; 14.3 µM in assay [2]; 20.1 µM in [3]; 2.81 µM in [4]; 10.8 µM in assay [5]; 3.98 µM in [6]. In addition, the TGI came to 7.91 µM in assay [7], 11 µM in assay [8], 0.731 µM in [9] and 25 µM in [10].

With `CCN(CC)Cc1cc(Nc2nc(NC3CCC(N(C)C)CC3)c3ccccc3n2)ccc1OC` (configuration not stated), the GI50 was 11 µM in assay [1]; 1.5 µM in assay [2]; 3.94 µM in [3]; 3.35 µM in assay [4]; 3.3 µM in assay [5]; 2.34 µM in assay [6]. In addition, the values for the GI50 in [7], in assay [8] and in [9] were 3.05 µM, 1.61 µM and 2.42 µM, respectively. Also, the TGI in assay [1] amounted to 24.8 µM; in [2], 2.87 µM; in assay [3], 16.8 µM; in [4], 13.2 µM; in assay [5], 13.3 µM; in [6], 6.63 µM. In addition, the TGI in assay [7] stood at 11.9 µM; in assay [8], 3.73 µM; in assay [9] it was 7.11 µM.

For the molecule `C[C@]12CC[C@H]3[C@@H](CCC4=CC(=O)CC[C@@]43C)[C@@H]1CC[C@@H]2c1csc(N)n1`, the GI50 is 6.4 µM in assay [1]; 3.57 µM in assay [2]; 4.61 µM in [3]; 3 µM in assay [4]; 9.2 µM in assay [5]; 1.21 µM in [6]. In addition, the GI50 in assay [7] was 2.63 µM; in [9], 4.41 µM; in assay [10], 12.5 µM. In addition, the TGI in assay [1] was 40.6 µM; in assay [2], 14.2 µM; in [3] it was 23.7 µM; in assay [4], 11.6 µM; in assay [5] it was 27 µM; in assay [6], 26.2 µM. Moreover, the figures for the TGI in assay [7], in assay [9] and in [10] were 10.6 µM, 18.3 µM and 33.3 µM, respectively.

As to `COCC([C@@H](O)C(O)C(=O)NCC[C@@H](C)c1nc(/C=C/CC2OC3(C[C@H](O)C2C)OC(C(C[C@H](O)C(C)[C@H](O)C(C)/C=C(C)/C(C)=C/C=C/C(C)=C/C#N)OC)[C@@H](OP(=O)(O)O)C3(C)C)co1)N(C)C` (some centres not stated), the TGI in assay [1] was determined as 0.000394 µM; in [2], 0.000309 µM; in assay [3], 0.000282 µM; in [4] it was 0.000331 µM; in assay [5], 0.00034 µM; in assay [7], 0.000336 µM. The TGI came out at 0.000316 µM in [8], 0.000297 µM in assay [9] and 0.00154 µM in assay [10].

With `N#Cc1nc2c(S(=O)(=O)c3ccc(Cl)cc3)c(N)n(Nc3cccc(Cl)c3)c2nc1C#N`, the GI50 in assay [1] is 0.0277 µM; in assay [3], 0.106 µM; in assay [5] it was 0.0307 µM; in assay [6] it was 0.00251 µM; in [7], 0.0497 µM; in [8] it was 0.0532 µM. The GI50 in [9] was 0.0295 µM; in assay [10], 0.0858 µM. Also, the TGI in assay [3] was 0.322 µM and 0.302 µM; in assay [5], 0.179 µM; in [6] it was 0.019 µM and 0.0668 µM; in assay [7], 0.379 µM and 0.067 µM; in assay [8], 0.33 µM.

In the case of `O=C1CC(c2ccccc2)Oc2ccccc21` (configuration not stated), the TGI in assay [1] was above 100 µM; in [2], above 100 µM; in assay [3], above 100 µM; in [4] it was above 100 µM; in assay [5], 55 µM; in [6], 37.9 µM. For the same molecule, the figures for the TGI in [7], in assay [9] and in assay [10] were above 100 µM, 59.7 µM and above 100 µM, respectively.

Turning to `COc1ccc(OC)c(NCC(=O)n2nc(/C=C\c3ccc(O)c(OC)c3)cc2/C=C\c2ccc(O)c(OC)c2)c1`, the GI50 in [2] was 2.11 µM; in [3], 3.16 µM; in assay [4], 1.81 µM; in assay [5] it was 1.74 µM; in [6], 0.702 µM; in assay [7] it was 1.5 µM. Also, the GI50 in [8] is 3.01 µM; in [9], 1.73 µM; in assay [10] it was 2.38 µM. Besides, the TGI in [2] turned out to be 4.27 µM; in assay [3] it was 16.1 µM; in assay [4], 4.92 µM; in assay [5] it was 6.15 µM; in assay [6], 3.54 µM; in assay [7] it was 9.6 µM. Also, the TGI was 14.6 µM in assay [8], 3.81 µM in assay [9] and 6.23 µM in assay [10].

Turning to `COc1ccc2sc3c(NCCCN)nc4ccccc4c3c(=O)c2c1`, the GI50 in assay [1] is 1.69 µM; in assay [2], 1.8 µM; in assay [3], 1.84 µM; in assay [4], 1.82 µM; in [5], 1.75 µM; in assay [6], 1.85 µM. The results for the GI50 in assay [7], in [8] and in assay [10] were 1.74 µM, 1.78 µM and 1.61 µM, respectively. In addition, the TGI worked out at 3.07 µM in assay [1]; 3.71 µM in assay [2]; 3.84 µM in assay [3]; 3.36 µM in assay [4]; 3.17 µM in [5]; 3.89 µM in [6]. Moreover, the TGI in [7] was determined as 3.21 µM; in [8] it was 3.32 µM; in assay [10], 3.66 µM.

As for `O=C(Nc1ccc(N=C=S)cc1Cl)c1cc(Br)cc(Br)c1O`, the TGI was 83.8 µM in assay [1]; above 100 µM in assay [2]; 41.5 µM in [3]; 55.3 µM in assay [4]; 54.6 µM in [5]; 71.4 µM in assay [7]. Moreover, the TGI is above 100 µM in assay [8], 38 µM in assay [9] and above 100 µM in [10].
